Legend:
[1] = log-P (octanol/water partition coefficient) by HPLC, indole/curcumin calibration curve; type: physicochemical; details: calculated from indole/curcumin calibration curve, listed as CCC07-001
Description: The polyamides were further analyzed for log-P (octanol/water partition coefficient) by HPLC. The retention times of 2 types of compounds (compound names) having a known log-P value and the polyamides were measured in the presence of a mixed solvent of 0.1% aqueous acetic acid solution and acetonitrile by HPLC using isocratic elution. […] The log-P values of the polyamides were calculated from the curve.

[2] = system: cytotoxic T cells (CD8-positive cells) and regulatory T cells (Treg); test: Ratio of cytotoxic T cells to Treg in the spleen of RKO-transplanted humanized NSG mice (flow cytometer); type: in vivo, mouse; details: one week after administration
Description: 1×10^7 cells of human PBMC (Precision Bioservices Inc.) were intravenously transplanted to each NSG mouse (NOD.Cg-Prkdc^scidI/2rg^tm1Wj1/SzJ; Charles River Laboratories Japan, Inc.) to prepare a humanized NSG mouse. One week after the PBMC transplantation, 1×10^7 RKO cells (ATCC) were subcutaneously transplanted to each humanized NSG mouse. After the transplantation, CCC07-01 was intravenously administered at 2.3 or 9.2 mg/kg to the mouse when tumorigenesis was able to be confirmed. The tumor size was measured over time, and the tumor volume (mm^3) was calculated according to the expression: Tumor volume=[…]. One week after the CCC07-01 administration, the spleen was harvested and homogenized in 2% FBS/PBS to prepare a cell suspension. The spleen cells were stained with a fluorescently labeled anti-human CD4 antibody, anti-human CD8 antibody and anti-human Foxp3 antibody and analyzed for the numbers of cytotoxic T cells (CD8-positive cells) and regulatory T cells (Treg: CD4-positive and Foxp3-positive cells) using a flow cytometer. Statistical processing was performed by the Mann-Whitney U test, and the significance level was set to P<0.05.

PD-1 gene = test: Experiment to silence PD-1 gene (RT-PCR / real-time PCR); type: cell-based, human; details: SW480 cells, 100 nM, 6 hours
Description: SW480 cells were cultured in a 6-well plate. On the next day, the cells were treated with 0, 1, 10, or 100 nM CCC07-01 for 6 hours. The cells were collected, and total RNA was extracted therefrom. The extraction employed RNeasy Plus Mini Kit (Qiagen N.V., CA). Next, cDNA was prepared by reverse transcription with the extracted RNA as a template according to Super Script VILO cDNA Synthesis kit (Invitrogen Corp., CA). RT-PCR was performed with the cDNA as a template under the following conditions: the conditions for PD-1 involved denaturation at 95° C. and then 33 cycles each involving 95° C. for 30 seconds, 56° C. for 30 seconds, and 72° C. for 30 seconds, followed by elongation reaction at 72° C. for 5 minutes. For a control, RT-PCR of GAPDH was performed using the same cDNA as above. The conditions for GAPDH involved denaturation at 95° C. and then 22 cycles each involving 95° C. for 30 seconds, 55° C. for 30 seconds, and 72° C. for 30 seconds, followed by elongation reaction at 72° C. for 5 minutes.
Each RT-PCR product was electrophoresed on 2% agarose and stained with ethidium bromide. qPCR was further performed. […] A relative expression level was quantified with GAPDH as a control.

RKO cells = test: Cytotoxicity test by WST assay, IC50 24 hours after administration; type: cell-based, human; details: WST-8
Description: (§1) From the cell lines mentioned above, a large intestine cancer cell line SW480 was used as cells expressing PD-1, a large intestine cancer cell line RKO was used as cells expressing PD-L1, and a malignant melanoma cell line A2058 and a pancreatic cancer cell line MIA PaCa-2 were used as cells expressing CTLA-4. The cells of each line were inoculated at 3000 cells/well to a 96-well microplate and cultured overnight. On the next day, the cells were treated with CCC07-01 having a concentration of 0.1, 1, 10, 30, 100, 300, or 1000 nM (1 μM) for 24 hours. Then, WST-8 reagent was added to each well using Cell counting kit-8, and the mixture was reacted for 2 hours. Then, the cell count was calculated at a wavelength of 450 nm by the colorimetric analysis method using a microplate reader. The method for calculating the cell count involved: 1) obtaining the mean value of a medium alone, 2) subtracting the mean value of the medium from each well, 3) obtaining the mean value of DMSO, 4) dividing the medium mean value-subtracted value by the mean value of DMSO and then multiplying by 100, and 5) obtaining the mean value of each treatment group and a standard deviation, and preparing a graph. IC50 was calculated according to the following expression: IC50=10(LOG(A/B)×(50−C)/(D−C)+LOG(B) wherein A: a higher concentration of two concentrations sandwiching 50%, B: a lower concentration of two concentrations sandwiching 50%, C: the rate of inhibition at B, and D: the rate of inhibition at A.
(§2) The cells used in the experiment were RKO (large intestine cancer), SW480 (large intestine cancer), A2058 (malignant melanoma), and MIA PaCa-2 (pancreatic cancer).

A2058 cells = test: as above; type: cell-based, human; details: WST-8
Description: as §1, §2

MIA PaCa-2 cells = test: as above; type: cell-based, human; details: MIA-PaCa2 cells, WST-8
Description: as §1, §2

SW480 cells = test: as above; type: cell-based, human; details: WST-8
Description: as §1, §2

Question: With `CC(=O)Nc1cn(C)c(C(=O)Nc2cc(C(=O)Nc3cn(C)c(C(=O)Nc4cn(C)c(C(=O)NCCC(=O)Nc5cc(C(=O)Nc6cc(C(=O)NCCCC(=O)Nc7cc(C(=O)Nc8cn(C)c(C(=O)NCCC(=O)Nc9cc(C(=O)Nc%10cc(C(=O)Nc%11ccc%12[nH]c(C(=O)N%13CC(CCl)c%14c%13cc(O)c%13ccccc%14%13)cc%12c%11)n(C)c%10)n(C)c9)n8)n(C)c7)n(C)c6)n(C)c5)n4)n3)n(C)c2)n1` (centres unmarked) [CCC07-01] as the compound, how does the logPow [1] read?
Answer: 3.13

Question: What about the “CD8-positive cell/Treg ratio in the spleen” value ([2]; 2.3 mg/kg intravenous) of the same compound?
Answer: 116.5

Question: And the “CD8-positive cell/Treg ratio in the spleen” value ([2]; 9.2 mg/kg intravenous)?
Answer: 323.2

Question: And the “expression of PD-1” value (PD-1 gene)?
Answer: markedly decreased

Question: And the IC50 (RKO cells)?
Answer: 12 nM

Question: And the IC50 (A2058 cells)?
Answer: 11 nM

Question: What about the IC50 (MIA PaCa-2 cells) of the same compound?
Answer: 189 nM

Question: And the IC50 (SW480 cells)?
Answer: 27 nM

Reference: US20190262457A1, “NOVEL ALKYLATING AGENT” (CHIBA-PREFECTURE, priority 2016, published 2019)
